Patent US20230201153A1, “COMPOSITIONS AND METHODS FOR TREATMENT OF OBESITY” (EPITRACKER, INC., priority 2020, published 2023)
Entries after “also recorded” stand apart in the source; their conditions may differ.

How the values were obtained:
[1] = molecular target: T1, cannabinoid receptor 1 (CB1) (Homo sapiens, UniProt P21554); assay: SAFETYscan E/IC50 ELECT functional assay, CB1 agonist activity; type: cell-based; settings: at 20 μM; relative to positive control CP 55940 assigned 100%
T1 construct: purchased DiscoverX/Eurofins, Fremont, Calif
T1 sequence (P21554 whole entry): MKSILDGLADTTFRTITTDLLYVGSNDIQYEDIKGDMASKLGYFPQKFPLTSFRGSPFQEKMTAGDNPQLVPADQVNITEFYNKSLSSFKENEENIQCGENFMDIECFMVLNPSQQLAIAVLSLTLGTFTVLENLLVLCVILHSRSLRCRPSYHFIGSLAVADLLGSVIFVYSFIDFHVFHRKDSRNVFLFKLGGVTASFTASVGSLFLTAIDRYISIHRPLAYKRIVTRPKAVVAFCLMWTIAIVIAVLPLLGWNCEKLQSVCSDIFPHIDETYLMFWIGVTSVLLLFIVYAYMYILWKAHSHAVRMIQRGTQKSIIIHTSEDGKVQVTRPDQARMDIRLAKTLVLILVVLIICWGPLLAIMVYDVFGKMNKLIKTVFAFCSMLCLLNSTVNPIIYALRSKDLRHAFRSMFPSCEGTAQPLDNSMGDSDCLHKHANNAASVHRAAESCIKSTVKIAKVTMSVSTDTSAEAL
From the text: (§1) In order to evaluate potential pharmacologic targets of pentadecanoic acid, this study examined agonist and antagonist activities of synthetic pentadecanoic acid (Sigma-Aldrich Product W433400) across 78 assays using SAFETYscan E/IC50 ELECT (DiscoverX/Eurofins, Fremont, Calif.). Briefly, a variety of standardized and optimized functional assays were used, including G protein coupled receptors (ADORA2A, ADRA1A, ADRA2A, ADRB1, ADRB2, CB1, CB2, CCK1, D1, D2S, ETA, H1, H2, M1 M2, M3, OPRD1, OPRK1, OPRM1, 5HTR1A, 5HTR1B, 5HTR2A, 5HTR2B, AVPR1A), kinases (LCK, INSR, VEGFR2, ROCK1), transporters (DAT, NET, SERT), ion channels (GABAA, 5-HT3, CA1.2, HERG, KVLQT1/MINK, NA1.5, NMDAR1/2B, NACHR), nuclear receptors (AR, GR), and non-kinase enzymes (COX1, COX2, ACHE, MAOA, PDE3A, PDE4D2). Ten-point concentration curves for both agonist (EC50) and antagonist (IC50) activity were established for each target. Maximum activity (%) was also determined based on comparisons with internal positive controls, which were assigned 100% activity.

[2] = molecular target: T2, cannabinoid receptor 2 (CB2) (Homo sapiens, UniProt P34972); assay: SAFETYscan E/IC50 ELECT functional assay, CB2 agonist activity; type: cell-based; settings: at 20 μM; relative to positive control CP 55940 assigned 100%
T2 construct: purchased DiscoverX/Eurofins, Fremont, Calif
T2 sequence (P34972 whole entry): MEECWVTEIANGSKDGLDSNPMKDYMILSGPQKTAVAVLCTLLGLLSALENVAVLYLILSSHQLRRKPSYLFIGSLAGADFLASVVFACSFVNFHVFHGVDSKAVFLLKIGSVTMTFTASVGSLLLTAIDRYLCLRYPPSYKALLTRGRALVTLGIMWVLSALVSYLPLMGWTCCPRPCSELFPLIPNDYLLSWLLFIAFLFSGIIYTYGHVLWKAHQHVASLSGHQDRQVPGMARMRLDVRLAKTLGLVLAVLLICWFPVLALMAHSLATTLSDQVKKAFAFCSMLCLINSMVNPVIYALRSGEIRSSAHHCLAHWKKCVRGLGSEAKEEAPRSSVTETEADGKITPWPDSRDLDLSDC
From the text: as §1

[3] = Body weight of mice fed a high-fat diet with daily oral supplementation; type: in vivo, male C57BL/6J mice; settings: for Body weight / Body weight change (%): high fat diet, n = 10; for percent body weight gain / weight-lowering effect compared to non-supplemented controls: high fat diet mice, C15:0 5 mg/kg, C17:0 5 and 35 mg/kg daily oral
From the text: This study assessed the effects of daily oral C15:0 and C17:0 supplementation on the body weight of mice fed a high-fat diet compared to non-supplemented controls.
Forty 6-week old male C57BL/6J mice (Jackson Laboratories, Bar Harbor, Me.) were fed a high fat diet (HFD, 60% kilocalories fat, D12492 Research Diets Inc., New Brunswick, N.J.) for eight weeks. Animals were randomly assigned to one of the following four study groups (10 per group) on Day −1 based on body weight: Group 1 (HFD non-supplemented controls), Group 2 (daily oral 5 mg/kg heptadecanoic acid, C17:0), Group 3 (daily oral 35 mg/kg heptadecanoic acid, C17:0), and Group 4 (daily oral 5 mg/kg pentadecanoic acid, C15:0). Group sizes for this pilot study were based on numerous published studies initially evaluating the effects of other natural small molecules on similar metabolic indices in the same model. Animals were provided the vehicle (1×PBS) or test articles daily via gastric gavage for 12 weeks. Animals were fed the HFD throughout the study. The study was conducted by Charles River Laboratories (Shrewsbury, Mass.), where animals were housed singly in solid bottom polycarbonate cages with Beta-chip contact bedding and enviro-dri nesting material, with temperature and humidity ranges of 18° to 26° C. and 30 to 70%, respectively. A 12 hr light cycle was used, and water and food were provided ad libitum. Body weights and body weight changes were recorded weekly throughout the study. Due to low sample sizes and inability to assume normal distributions, Wilcoxon tests were used to compare body weight values between supplemented and non-supplemented controls; a two-sided P value ≤0.05 was defined as significant.

[4] = Voluntary customer surveys after daily oral C15:0 supplement (fatty15); type: in vivo, human
Procedure: An odd-chain saturated fatty acid dietary supplement, containing an encapsulated pure (>98%) free fatty acid C15:0 powder and called fatty15™, was launched as a consumer health product. Recommended dosing was a single, […] capsule taken orally once a day. Based on our studies with obese mice, we hypothesized that daily oral C15:0 supplementation would decrease snacking and/or improve body weight among customers.
6-Week Survey. Six weeks following receipt of the C15:0 supplement, customers were provided a voluntary electronic questionnaire to evaluate potential near-term benefits, including the question, ‘Overall how much would you agree with the following statement: Since starting fatty15, I feel less hungry between meals, snack less, and/or eat less during meals.’ Survey responders were asked to select a number between 1 and 10, in which 1=Strongly disagree and 10=Strongly agree. A response of 7 or greater was considered an agreement with the statement. Survey responders were also asked if fatty15™ had become a part of their daily health routine.
4-Month Survey. Approximately 4 months following receipt of the C15:0 supplement, customers were provided a second voluntary electronic questionnaire to evaluate potential longer-tem benefits, including the question, ‘Which of the following (if any) have you experienced since starting fatty15, even if this experience has been subtle?’ Two of the possible responses were ‘Healthier eating, including less snacking’ and ‘Healthier body weight’.

PPARα = molecular target: T3, PPARα (Homo sapiens, UniProt Q07869); assay: PathHunter NHRscan CHO cell-based functional protein interaction assay, PPARα agonist; settings: CHO cells, 10 concentrations up to 100 μM; for EC50: read-out: effective concentration needed to reach half-maximum PPARα activity
T3 construct: host or cells: Chinese hamster ovary (CHO)
T3 sequence (Q07869 1-468): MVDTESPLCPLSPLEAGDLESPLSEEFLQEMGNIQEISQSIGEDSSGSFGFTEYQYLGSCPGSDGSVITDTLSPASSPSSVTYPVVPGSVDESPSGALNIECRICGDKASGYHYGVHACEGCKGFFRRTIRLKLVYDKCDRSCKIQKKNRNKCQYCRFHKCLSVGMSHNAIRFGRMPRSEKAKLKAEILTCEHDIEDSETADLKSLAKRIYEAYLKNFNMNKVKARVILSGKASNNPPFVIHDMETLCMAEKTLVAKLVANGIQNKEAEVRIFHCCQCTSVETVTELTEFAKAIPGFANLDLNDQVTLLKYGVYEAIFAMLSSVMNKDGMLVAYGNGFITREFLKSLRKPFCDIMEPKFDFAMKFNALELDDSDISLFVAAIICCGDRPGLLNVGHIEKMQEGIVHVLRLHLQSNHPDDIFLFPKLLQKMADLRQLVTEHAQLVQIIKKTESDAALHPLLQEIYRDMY
Procedure: (§2) Chinese hamster ovary (CHO, cell line 93-0457C2) cell-based functional protein interaction assays for PPARα, δ, and γ that are part of the Eurofins/DiscoverX PathHunter NHRscan panel (Fremont, Calif.) were used to evaluate C15:0 and C17:0 PPARα, δ and γ agonist activities at 10 concentrations (up to 100 μM). Effective concentrations (EC:50) and maximum activities were determined in relation to positive controls (GW7647 for PPARα, L-165.041 for PPARδ, and troglitazone for PPARγ). Detailed methods used for these assays and assay readouts are available from Eurofins/DiscoverX.

PPARδ = molecular target: T4, PPARδ (Homo sapiens, UniProt Q03181); assay: PathHunter NHRscan CHO cell-based functional protein interaction assay, PPARδ agonist; settings: CHO cells, 10 concentrations up to 100 μM; for EC50: read-out: effective concentration needed to reach half-maximum PPARδ activity
T4 construct: host or cells: Chinese hamster ovary (CHO)
T4 sequence (Q03181 1-441): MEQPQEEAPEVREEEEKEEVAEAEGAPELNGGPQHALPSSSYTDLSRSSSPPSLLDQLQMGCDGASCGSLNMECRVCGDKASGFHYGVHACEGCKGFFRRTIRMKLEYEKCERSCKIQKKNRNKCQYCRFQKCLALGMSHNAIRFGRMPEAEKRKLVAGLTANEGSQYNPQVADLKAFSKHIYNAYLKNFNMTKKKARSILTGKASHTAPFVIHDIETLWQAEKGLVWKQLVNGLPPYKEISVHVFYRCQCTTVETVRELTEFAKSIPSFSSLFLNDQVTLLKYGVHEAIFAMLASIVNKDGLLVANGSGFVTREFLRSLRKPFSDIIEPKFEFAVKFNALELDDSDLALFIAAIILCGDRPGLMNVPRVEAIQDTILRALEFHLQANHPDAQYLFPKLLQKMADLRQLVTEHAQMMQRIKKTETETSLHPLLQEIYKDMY
Procedure: as §2

PPARγ = molecular target: T5, PPARγ (Homo sapiens, UniProt P37231); assay: PathHunter NHRscan CHO cell-based functional protein interaction assay, PPARγ agonist; settings: CHO cells, 10 concentrations up to 100 μM; positive control troglitazone; read-out: concentration with PPARγ agonist activity
T5 construct: host or cells: Chinese hamster ovary (CHO)
T5 sequence (P37231 1-505): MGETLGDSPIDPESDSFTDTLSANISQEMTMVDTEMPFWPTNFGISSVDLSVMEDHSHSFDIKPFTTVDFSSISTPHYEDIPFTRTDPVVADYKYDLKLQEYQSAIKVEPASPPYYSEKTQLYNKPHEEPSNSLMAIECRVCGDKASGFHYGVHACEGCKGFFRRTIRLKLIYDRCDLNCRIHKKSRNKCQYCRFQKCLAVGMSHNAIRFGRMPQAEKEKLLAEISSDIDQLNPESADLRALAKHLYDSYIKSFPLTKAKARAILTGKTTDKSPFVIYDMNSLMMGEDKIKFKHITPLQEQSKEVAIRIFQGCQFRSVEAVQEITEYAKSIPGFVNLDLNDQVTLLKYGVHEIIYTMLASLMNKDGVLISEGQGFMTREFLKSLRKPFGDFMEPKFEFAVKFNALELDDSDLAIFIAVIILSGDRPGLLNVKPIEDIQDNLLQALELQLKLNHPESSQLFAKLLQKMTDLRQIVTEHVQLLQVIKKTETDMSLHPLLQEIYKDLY
Procedure: as §2

[5] = 5 mg/kg daily oral gavage for 12 weeks
[6] = 5 mg/kg daily oral gavage for 12 weeks, *p < 0.05 compared to controls
[7] = after 4 months of daily oral 100 mg, 44 responders
[8] = 35 mg/kg daily oral gavage for 12 weeks

SMILES | CB1 agonist activity [1] | CB2 agonist activity [2] | Body weight [3, 5] | Body weight change (%) [3, 6] | percent body weight gain / weight-lowering effect compared to non-supplemented controls [3] | customers reporting healthier body weight [4, 7] | customers reporting healthier eating, including less snacking [4, 7] | customers reporting feeling less hungry between meals, snacking less, and/or eating less during meals ([4]; after 6 weeks of daily oral 100 mg, 114 responders) | satiety reported by patients taking the dietary supplement ([4]; dietary supplement) | maximum PPARα agonist activity compared to positive control GW7647 (PPARα) | EC50 (PPARα) | maximum PPARδ agonist activity compared to positive control L-165,041 (PPARδ) | EC50 (PPARδ) | EC50 (PPARγ) | Body weight [3, 8] | Body weight change (%) [3, 8]
CCCCCCCCCCCCCCC(=O)O [C15:0, pentadecanoic acid] | 24.5% | 18.2% | 41 ± 5 g | 120 ± 6* % | weight-lowering effect was observed; also recorded: lower percent body weight gain | 21% | 33% | 46% | increased satiety | 65.8% | 11.5 µM | 52.8% | 2.7 µM | ≥ 100 µM | – | –
CCCCCCCCCCCCCCCCC(=O)O [C17:0, heptadecanoic acid] | – | – | 43 ± 6 g | 127 ± 9% | weight-lowering effect was not observed; also recorded: did not significantly decrease percent body weight | – | – | – | – | – | > 100 µM | 39.8% | 17.4 µM | ≥ 100 µM | 41 ± 7 g | 122 ± 12%
